Assays:
[1] = molecular target: T1, Metabotropic glutamate receptor 5 (Homo sapiens, UniProt P41594); assay: Antagonist activity at human mGluR5d by fluo-3-based FLIPR assay
[2] = molecular target: T1, Metabotropic glutamate receptor 5; assay: Antagonist activity at human mGluR5 expressed in CHO cells assessed as inhibition of glutamate-induced effect by aequorin bioluminescence assay; assay type: cell-based
[3] = molecular target: T1, Metabotropic glutamate receptor 5; assay: Antagonist activity at mGluR5 (unknown origin)
[4] = molecular target: T2, Metabotropic glutamate receptor 5 (Rattus norvegicus, UniProt P31424); assay: Displacement of [3H]methoxy-PEPgamma from mGluR5 in rat cerebral cortex membranes after 60 mins by scintillation counting analysis; assay type: cell membranes, Membrane
T2 sequence (P31424 whole entry): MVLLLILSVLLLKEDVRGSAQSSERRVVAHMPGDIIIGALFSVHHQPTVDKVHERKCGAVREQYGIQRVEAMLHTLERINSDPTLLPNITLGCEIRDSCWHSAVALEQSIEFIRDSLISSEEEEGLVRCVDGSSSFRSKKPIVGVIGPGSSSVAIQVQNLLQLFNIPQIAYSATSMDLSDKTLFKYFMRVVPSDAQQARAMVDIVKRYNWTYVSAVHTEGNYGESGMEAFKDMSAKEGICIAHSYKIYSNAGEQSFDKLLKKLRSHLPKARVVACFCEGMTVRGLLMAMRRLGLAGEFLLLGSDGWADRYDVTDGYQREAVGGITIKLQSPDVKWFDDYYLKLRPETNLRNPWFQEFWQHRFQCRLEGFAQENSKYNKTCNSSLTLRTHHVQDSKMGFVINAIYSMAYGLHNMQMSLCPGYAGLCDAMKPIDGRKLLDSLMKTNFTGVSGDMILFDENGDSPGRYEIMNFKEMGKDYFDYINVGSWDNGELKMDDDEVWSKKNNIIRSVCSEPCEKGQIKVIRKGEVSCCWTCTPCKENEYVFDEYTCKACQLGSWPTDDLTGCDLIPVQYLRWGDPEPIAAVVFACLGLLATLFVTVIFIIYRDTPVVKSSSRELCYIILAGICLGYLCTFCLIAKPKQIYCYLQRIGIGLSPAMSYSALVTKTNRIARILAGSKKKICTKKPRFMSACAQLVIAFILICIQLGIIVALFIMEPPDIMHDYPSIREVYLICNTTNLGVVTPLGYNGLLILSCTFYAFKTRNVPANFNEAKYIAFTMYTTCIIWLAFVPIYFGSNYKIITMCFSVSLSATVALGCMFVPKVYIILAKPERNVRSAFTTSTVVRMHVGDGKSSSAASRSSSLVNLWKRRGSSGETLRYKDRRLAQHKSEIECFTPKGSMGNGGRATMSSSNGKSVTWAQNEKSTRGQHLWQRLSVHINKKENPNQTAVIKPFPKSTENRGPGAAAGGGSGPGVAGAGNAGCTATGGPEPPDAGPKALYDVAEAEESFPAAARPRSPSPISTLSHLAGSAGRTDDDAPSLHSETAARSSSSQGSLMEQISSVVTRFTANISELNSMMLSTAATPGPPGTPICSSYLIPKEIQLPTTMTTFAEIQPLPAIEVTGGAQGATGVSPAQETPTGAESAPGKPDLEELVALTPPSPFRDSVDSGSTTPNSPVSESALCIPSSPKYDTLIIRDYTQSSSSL

[5] = molecular target: T2, Metabotropic glutamate receptor 5; assay: Antagonist activity at rat mGluR5 expressed in HEK293 cells assessed as inhibition of glutamate-induced calcium mobilization by Fluo-4 dye-based fluorescence assay; assay type: functional, cell-based

T1 sequence (P41594 whole entry): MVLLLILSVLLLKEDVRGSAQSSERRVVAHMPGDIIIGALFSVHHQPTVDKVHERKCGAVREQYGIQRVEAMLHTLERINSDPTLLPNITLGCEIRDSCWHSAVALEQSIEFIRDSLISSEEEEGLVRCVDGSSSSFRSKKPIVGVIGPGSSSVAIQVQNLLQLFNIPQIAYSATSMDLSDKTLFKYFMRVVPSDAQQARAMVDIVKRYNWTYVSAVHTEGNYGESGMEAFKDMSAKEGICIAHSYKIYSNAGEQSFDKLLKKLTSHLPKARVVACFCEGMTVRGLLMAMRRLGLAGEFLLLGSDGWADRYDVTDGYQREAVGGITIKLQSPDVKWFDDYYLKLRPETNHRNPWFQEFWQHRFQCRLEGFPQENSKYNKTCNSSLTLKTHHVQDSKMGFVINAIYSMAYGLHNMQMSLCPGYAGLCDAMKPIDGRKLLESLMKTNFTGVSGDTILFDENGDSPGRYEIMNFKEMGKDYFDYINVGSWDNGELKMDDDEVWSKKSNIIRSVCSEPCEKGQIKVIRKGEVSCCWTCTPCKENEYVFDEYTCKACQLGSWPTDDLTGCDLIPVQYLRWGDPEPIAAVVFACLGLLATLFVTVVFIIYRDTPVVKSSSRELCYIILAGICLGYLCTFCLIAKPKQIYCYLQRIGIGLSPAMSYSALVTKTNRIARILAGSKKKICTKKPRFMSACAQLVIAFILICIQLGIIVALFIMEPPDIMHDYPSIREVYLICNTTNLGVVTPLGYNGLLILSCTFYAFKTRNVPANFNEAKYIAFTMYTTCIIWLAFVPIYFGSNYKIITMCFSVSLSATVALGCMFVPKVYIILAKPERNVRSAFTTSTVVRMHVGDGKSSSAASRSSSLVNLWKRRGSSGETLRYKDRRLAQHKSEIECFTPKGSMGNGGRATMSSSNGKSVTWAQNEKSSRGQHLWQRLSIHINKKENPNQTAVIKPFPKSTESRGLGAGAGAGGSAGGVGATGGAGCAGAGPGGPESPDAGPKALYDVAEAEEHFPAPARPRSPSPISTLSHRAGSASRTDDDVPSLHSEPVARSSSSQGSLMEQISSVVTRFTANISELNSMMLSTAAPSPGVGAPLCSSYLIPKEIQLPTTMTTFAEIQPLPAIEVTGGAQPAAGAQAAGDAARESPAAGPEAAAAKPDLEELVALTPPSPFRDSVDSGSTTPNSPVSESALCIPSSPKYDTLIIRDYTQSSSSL

N#Cc1cccc(C#C[C@H]2CCC[C@H]3CN(c4ncccc4C#N)CCN32)c1 (racemic)
IC50 [1]: 20 nM

O=C(Nc1ccnc(Cl)c1)c1nnn2c1CSc1c-2ccc(F)c1Cl
IC50 [2]: 0.79 nM

N#Cc1nccnc1N1CCN2[C@@H](CC[C@@H]2c2nnn(-c3cccc(Cl)c3)n2)C1 (racemic)
IC50 [3]: 10 nM

Cc1cccc(C(=O)NC23CC4CC(C2)CC(NC(=O)c2cccc(C)n2)(C4)C3)n1
Ki [4]: 6.7 nM

N#Cc1cnc(Nc2nc3ccccc3o2)nc1-c1ccc(F)cc1
IC50 [5]: 91 nM

Reference: ChEMBL document CHEMBL3758087, “7TM X-ray structures for class C GPCRs as new drug-discovery tools. 1. mGluR5” (Bioorg Med Chem Lett, 2016)
